These results are taken from DBAASP.

Converted amounts (≈) assume the structure as drawn. Bounds are passed on as bounds.

Among the test systems are Bacillus subtilis; Shigella dysenteriae; Staphylococcus aureus; Pseudomonas aeruginosa; Bacillus subtilis 168; Escherichia coli B.
Holding throughout (experiment): ≥ marks a high value that may be exact or a test limit, other limits are often not marked, values filed in µg/mL are converted to µM
Test [1] deals with Candida albicans ATCC 2002.
Test [2] relates to Escherichia coli ATCC 25922.
Test [3] concerns Staphylococcus aureus ATCC 2592.
For test [4], the system named is Bacillus subtilis ATCC 6633.
Test [5] deals with Candida albicans F7-39/IDE99.
Test [6] relates to Pseudomonas aeruginosa ATCC 27853.
The test system of test [7] is Pseudomonas aeruginosa CMCCB 10104.

With `CC(C)C[C@H](NC(=O)[C@H](CCCCN)NC(=O)[C@H](CCCN=C(N)N)NC(=O)[C@H](Cc1c[nH]c2ccccc12)NC(=O)[C@H](Cc1c[nH]c2ccccc12)NC(=O)[C@H](CCCCN)NC(=O)[C@H](CCCCN)NC(=O)[C@H](Cc1c[nH]c2ccccc12)NC(=O)[C@H](CCCN=C(N)N)NC(=O)[C@H](CCCCN)NC(=O)[C@@H](N)C(C)C)C(=O)N[C@@H](CCCCN)C(=O)N[C@@H](CCCCN)C(=O)N[C@@H](CO)C(=O)N[C@H](C(N)=O)C(C)C` [VKRWKKWWRKLKKSV], the minimal inhibitory concentration (MIC) is 4.56 µM (≈ 9.38 µg/mL) in [1], 9.12 µM (≈ 18.7 µg/mL) in [2], not below 48.6 µM with Bacillus subtilis and not below 48.6 µM in test [3].
For `CC[C@H](C)[C@H](NC(=O)[C@@H]1CCCN1C(=O)[C@H](Cc1ccccc1)NC(=O)[C@@H](N)Cc1ccccc1)C(=O)N[C@H](C(=O)NCC(=O)N[C@@H](CCCCN)C(=O)N[C@@H](CCCN=C(N)N)C(=O)N[C@@H](CC(C)C)C(=O)N[C@@H](Cc1ccc(O)cc1)C(=O)NCC(=O)N[C@@H](CC(C)C)C(=O)N[C@@H](CC(C)C)C(N)=O)C(C)C` [FFPIVGKRLYGLL], the MIC amounted to 24.6 µM (≈ 37.5 µg/mL) in test [1]; 12.3 µM (≈ 18.7 µg/mL) against Shigella dysenteriae; 46 µM (≈ 70 µg/mL) in [2]; 3.09 µM (≈ 4.7 µg/mL) in [3]; 6.16 µM (≈ 9.37 µg/mL) in test [4].
As to `CC[C@H](C)[C@H](NC(=O)[C@H](Cc1cnc[nH]1)NC(=O)[C@H](CCCCN)NC(=O)[C@H](CC(C)C)NC(=O)[C@H](CC(C)C)NC(=O)[C@H](CO)NC(=O)[C@H](CCSC)NC(=O)[C@H](Cc1c[nH]c2ccccc12)NC(=O)[C@H](CCCCN)NC(=O)CN)C(=O)N[C@@H](CC(C)C)C(=O)N[C@@H](CCCCN)C(N)=O` [GKWMSLLKHILK], the MIC was 8.1 µM (≈ 11.8 µg/mL) with Staphylococcus aureus; 42.1 µM (≈ 61.2 µg/mL) against Pseudomonas aeruginosa; 1 µM (≈ 1.45 µg/mL) in the test on Bacillus subtilis 168; 2.5 µM (≈ 3.63 µg/mL) against Escherichia coli B; 6.6 µM (≈ 9.59 µg/mL) in test [5].
As for `CC[C@H](C)[C@H](NC(=O)[C@H](C)NC(=O)CNC(=O)[C@@H](NC(=O)[C@@H](NC(=O)[C@@H](NC(=O)CNC(=O)[C@@H](NC(=O)[C@@H](NC(=O)[C@@H](NC(=O)[C@H](C)NC(=O)[C@H](Cc1ccccc1)NC(=O)[C@H](CC(C)C)NC(=O)[C@H](CCCN=C(N)N)NC(=O)[C@H](CCCN=C(N)N)NC(=O)[C@H](CC(C)C)NC(=O)CNC(=O)CNC(=O)[C@@H](NC(=O)[C@@H](N)Cc1ccccc1)[C@@H](C)CC)[C@@H](C)O)C(C)C)C(C)C)[C@@H](C)O)C(C)C)C(C)C)C(=O)N[C@@H](CC(N)=O)C(=O)N[C@@H](CCCCN)C(=O)N[C@@H](CC(C)C)C(=O)NCC(=O)NCC(=O)NCC(=O)O` [FIGGLRRLFATVVGTVVGAINKLGGG], the MIC in test [1] is 2.45 µM (≈ 6.3 µg/mL); in [2] it was 4.86 µM (≈ 12.5 µg/mL); against Bacillus subtilis, not below 38.9 µM; in [3], 4.86 µM (≈ 12.5 µg/mL); in test [6] it was 8 µM (≈ 20.6 µg/mL).
In the case of `CC[C@H](C)[C@H](N)C(=O)N[C@@H](CC(C)C)C(=O)NCC(=O)N1CCC[C@H]1C(=O)N[C@H](C(=O)N[C@H](C(=O)N[C@@H](CO)C(=O)N[C@H](C(=O)N[C@H](C(=O)NCC(=O)NCC(=O)N[C@H](C(=O)N[C@@H](CC(C)C)C(=O)NCC(=O)NCC(=O)N[C@@H](CC(C)C)C(=O)N[C@@H](CC(C)C)C(=O)N[C@@H](CCCCN)C(=O)N[C@@H](CC(N)=O)C(=O)N[C@@H](CC(C)C)C(N)=O)C(C)C)[C@@H](C)CC)[C@@H](C)O)[C@@H](C)CC)C(C)C` [ILGPVISTIGGVLGGLLKNL], the MIC in test [7] amounted to 4.65 µM (≈ 9 µg/mL); in test [1], 2.33 µM (≈ 4.5 µg/mL); in [2], 4.65 µM (≈ 9 µg/mL); in [3] it was 2.33 µM (≈ 4.5 µg/mL).
